Reference: patent publication US9981962B2, “Pyrazole derivatives as NIK inhibitors” (Janssen Pharmaceutica NV, priority 2014, dated 2018)

What was measured:
[1] = target: T1, Recombinant Human NF-kappaB-Inducing Kinase (NIK/MAP3K14) (Homo sapiens, UniProt Q99558); test: Biological Assay A: inhibition of recombinant human NIK/MAP3K14 activity (MSD, MBP substrate); conditions: 10 nM NIK, 25 μM ATP, 1 h at 25° C.; averaged over all measurements on all batches; read-out: Biochemical (MSD IC50)
Protocol: Inhibition of Recombinant Human NF-kappaB-Inducing Kinase (NIK/MAP3K14) Activity Assay buffer was 50 mM Tris pH 7.5 containing 1 mM EGTA (ethylene glycol tetraacetic acid), 1 mM DTT (dithiothreitol), 0.1 mM Na3VO4, 5 mM MgCl2, 0.01% Tween® 20. Assays were carried out in 384 well Mesoscale high binding plates which had been coated with myelin basic protein (MBP) and blocked with bovine serum albumin to prevent non-specific protein binding. All compounds tested were dissolved in dimethyl sulfoxide (DMSO) and further dilutions were made in assay buffer. Final DMSO concentration was 1% (v/v) in assays. Incubations consisted of compound (1% DMSO in control and blank wells), 25 μM Adenosine-5′-triphosphate (ATP), and 10 nM NIK/MAP3K14 substituting enzyme with buffer in the blank wells. Incubations were carried out for 1 h at 25° C. and were followed by washing and sequential incubation with rabbit anti-phospho-MBP and anti-rabbit Ig Sulfotag antibody before reading bound Sulfotag on a Mesoscale Discovery. Signal obtained in the wells containing blank samples was subtracted from all other wells and ICso's were determined by fitting a sigmoidal curve to % inhibition of control versus Log10 compound concentration.

[2] = target: T1, Recombinant Human NF-kappaB-Inducing Kinase (NIK/MAP3K14); test: Biological Assay A2: inhibition of auto-phosphorylation of recombinant human NIK/MAP3K14 (AlphaScreen); type: biochemical; conditions: 0.2 nM GST-tagged NIK, 25 microM ATP, 1 h at 25° C., averaged values
Protocol: Inhibition of Auto-Phosphorylation of Recombinant Human NF-kappaB-Inducing Kinase (NIK/MAP3K14) Activity (AlphaScreen®)
NIK/MAP3K14 auto-phosphorylation activity was measured using the AlphaScreen® (αscreen) format (Perkin Elmer). All compounds tested were dissolved in dimethyl sulfoxide (DMSO) and further dilutions were made in assay buffer. Final DMSO concentration was 1% (v/v) in assays. Assay buffer was 50 mM Tris pH 7.5 containing 1 mM EGTA (ethylene glycol tetraacetic acid), 1 mM DTT (dithiothreitol), 0.1 mM Na3VO4, 5 mM MgCl2, 0.01% Tween® 20. Assays were carried out in 384 well Alphaplates (Perkin Elmer). Incubations consisted of compound, 25 microM Adenosine-5′-triphosphate (ATP), and 0.2 nM NIK/MAP3K14. Incubations were initiated by addition of GST-tagged NIK/MAP3K14 enzyme, carried out for 1 h at 25° C. and terminated by addition of stop buffer containing anti-phospho-IKK Ser176/180 antibody. Protein A Acceptor and Glutathione-Donor beads were added before reading using an EnVision® Multilabel Plate Reader (Perkin Elmer). Signal obtained in the wells containing blank samples was subtracted from all other wells and IC50's were determined by fitting a sigmoidal curve to % inhibition of control versus Log10 compound concentration.

[3] = tested on: P-IKKα levels in L363 cells; test: Biological Assay B: effect of compounds on P-IKKα levels in L363 cells; type: cell-based; conditions: Homo sapiens, L-363, BAFF stimulated, 2 hr treatment, averaged values, read-out: IKKα Cellular IC50
Protocol: Effect of Compounds on P-IKKα Levels in L363 Cells
All compounds tested were dissolved in DMSO and further dilutions were made in culture medium. Final DMSO concentration was 1% (v/v) in cell assays. The human L363 cells (ATCC) were cultured in RPMI 1640 medium supplemented with GlutaMax and 10% fetal calf serum (PAA). Cells were routinely maintained at densities of 0.2×10^6 cells per ml—1×10^6 cells per ml at 37° C. in a humidified 5% CO2 atmosphere. Cells were passaged twice a week splitting back to obtain the low density. Cells were seeded in 96 well plates (Nunc 167008) at 2×10^6 per ml media in a volume of 75 μl per well plus 25 μl 1 μg/ml recombinant human B-cell activating factor (BAFF/BLyS/TNFSF13B). Seeded cells were incubated at 37° C. in a humidified 5% CO2 atmosphere for 24 hr. Drugs and/or solvents were added (20 μl) to a final volume of 120 μl. Following 2 hr treatment plates were removed from the incubator and cell lysis was achieved by the addition of 30 μl 5× lysis buffer followed by shaking on a plate shaker at 4° C. for 10 min. At the end of this incubation lysed cells were centrifuged at 800×g for 20 min at 4° C. and the lysate was assessed for P-IKKα levels by sandwich immuno-assay carried out in anti-rabbit antibody coated Mesoscale plates. Within an experiment, the results for each treatment were the mean of 2 replicate wells. For initial screening purposes, compounds were tested using an 8 point dilution curve (serial 1:3 dilutions). For each experiment, controls (containing MG132 and BAFF but no test drug) and a blank incubation (containing MG132 and BAFF and 10 μM ADS125117, a test concentration known to give full inhibition) were run in parallel. The blank incubation value was subtracted from all control and sample values. To determine the IC50 a sigmoidal curve was fitted to the plot of % inhibition of control P-IKKα levels versus Log10 compound concentration.

JJN-3 cells = test: Biological Assay C: antiproliferative activity on JJN-3 cells (CellTiter-Glo); type: cell-based, human; conditions: Homo sapiens, JJN-3, 72 h, 72 hr treatment, averaged values
Protocol: (§1) Determination of Antiproliferative Activity on LP-1, L-363 and JJN-3 Cells
(§2) All compounds tested were dissolved in DMSO and further dilutions were made in culture medium. Final DMSO concentration was 0.3% (v/v) in cell proliferation assays. Viability was assessed using CellTiter-Glo cell viability assay kit (Promega). The human LP-1, L-363 and JJN-3 cells (DSMZ) were cultured in RPMI 1640 medium supplemented with 2 mM L-glutamine, and 10% fetal calf serum (PAA). Cells were routinely kept as suspension cells at 37° C. in a humidified 5% CO2 atmosphere. Cells were passaged at a seeding density of 0.2×10^6/ml twice a week. Cells were seeded in black tissue culture treated 96-well plates (Perkin Elmer). Densities used for plating ranged from 2,000 to 6,000 cells per well in a total volume of 75 μl medium. After twenty four hours, drugs and/or solvents were added (25 μl) to a final volume of 100 μl. Following 72 hr of treatment plates were removed from the incubator and allowed to equilibrate to room temperature for approx 10 min. 100 ut CellTiter-Glo reagent was added to each well that was then covered (Perkin Elmer Topseal) and shaken on plate shaker for 10 min. Luminescence was measured on a HTS Topcount (Perkin Elmer). Within an experiment, the results for each treatment were the mean of 2 replicate wells. For initial screening purposes, compounds were tested using a 9 point dilution curve (serial 1:3 dilutions). For each experiment, controls (containing no drug) and a blank incubation (containing cells read at the time of compound addition) were run in parallel. The blank value was subtracted from all control and sample values. For each sample, the mean value for cell growth (in relative light units) was expressed as a percentage of the mean value for cell growth of the control.

L-363 cells = test: Biological Assay C: antiproliferative activity on L-363 cells (CellTiter-Glo); type: cell-based, human; conditions: Homo sapiens, L-363, 72 h, 72 hr treatment, averaged values
Protocol: as §1, §2

LP-1 cells = test: Biological Assay C: antiproliferative activity on LP-1 cells (CellTiter-Glo); type: cell-based, human; conditions: Homo sapiens, LP-1, 72 h, 72 hr treatment, averaged values
Protocol: as §1, §2

T1 sequence (Q99558 whole entry): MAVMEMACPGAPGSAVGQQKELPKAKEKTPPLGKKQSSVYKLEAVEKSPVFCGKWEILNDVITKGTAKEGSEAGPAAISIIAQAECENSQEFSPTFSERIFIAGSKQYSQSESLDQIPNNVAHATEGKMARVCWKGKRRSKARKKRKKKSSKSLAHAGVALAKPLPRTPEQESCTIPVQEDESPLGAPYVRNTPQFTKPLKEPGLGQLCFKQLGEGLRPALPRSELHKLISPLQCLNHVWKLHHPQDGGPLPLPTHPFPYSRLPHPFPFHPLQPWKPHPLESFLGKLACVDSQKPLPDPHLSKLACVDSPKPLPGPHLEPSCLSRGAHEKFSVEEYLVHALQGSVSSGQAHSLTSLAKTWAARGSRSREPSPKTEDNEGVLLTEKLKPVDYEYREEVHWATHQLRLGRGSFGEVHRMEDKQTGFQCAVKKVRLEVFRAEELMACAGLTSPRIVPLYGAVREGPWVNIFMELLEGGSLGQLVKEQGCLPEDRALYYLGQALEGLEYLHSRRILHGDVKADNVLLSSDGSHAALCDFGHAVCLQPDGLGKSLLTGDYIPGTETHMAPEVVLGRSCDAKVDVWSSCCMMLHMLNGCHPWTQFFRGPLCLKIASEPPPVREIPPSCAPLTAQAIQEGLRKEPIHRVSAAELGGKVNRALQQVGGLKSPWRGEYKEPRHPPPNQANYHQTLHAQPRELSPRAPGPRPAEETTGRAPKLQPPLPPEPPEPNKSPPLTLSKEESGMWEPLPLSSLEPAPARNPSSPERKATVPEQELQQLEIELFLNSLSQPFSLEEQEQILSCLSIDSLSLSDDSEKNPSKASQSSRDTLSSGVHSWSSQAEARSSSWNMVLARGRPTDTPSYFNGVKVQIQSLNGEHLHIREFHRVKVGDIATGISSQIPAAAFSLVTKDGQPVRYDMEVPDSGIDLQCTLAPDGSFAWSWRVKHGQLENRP

Row | IC50 [1] [nM] | IC50 [2] [nM] | IC50 [3] [nM] | SMILES | EC50 (JJN-3 cells) [nM] | EC50 (L-363 cells) [nM] | EC50 (LP-1 cells) [nM]
1 | 71 | 35 | 139 | CCn1cc(-c2c[nH]nc2C)c2cc(C#CC(C)(C)O)ccc21 [Compound 3] | 1860 | 3120 | 3160
2 | 38 | 25 | 145 | CC(C)(O)C#Cc1ccc2c(c1)c(-c1cn[nH]c1)cn2CC1CCOC1 (stereo not drawn) [Compound 5] | 1410 | 1830 | 1890
3 | 6 | 66 | 73 | CC(C)(O)C#Cc1ccc2c(c1)c(-c1cn[nH]c1)cn2CC1COC1 [Compound 6] | 1080 | 704 | 1950
4 | 11 | 73 | 175 | COCCn1cc(-c2cn[nH]c2)c2cc(C#CC(C)(C)O)ccc21 [Compound 7] | 1410 | 1180 | 2180
5 | 13 | 14 | 18 | CC(C)n1cc(-c2cn[nH]c2)c2cc(C#CC(C)(C)O)ccc21 [Compound 8] | 218 | 221 | 219
6 | 8 | 43 | 54 | CCn1cc(-c2cn[nH]c2)c2cc(C#CC(C)(C)O)ccc21 [Compound 9] | 418 | 332 | 298
7 | 38 | 110 | 111 | CC(C)(O)C#Cc1ccc2c(c1)c(-c1cn[nH]c1)cn2CC(C)(C)O [Compound 10] | 723 | 759 | 947
8 | 16 | 65 | 83 | CC(C)(O)C#Cc1ccc2c(c1)c(-c1cn[nH]c1)cn2CCO [Compound 11] | 394 | 340 | 483
9 | 41 | 65 | 38 | Cn1cc(-c2cn[nH]c2)c2cc(C#CC(C)(C)O)ccc21 [Compound 12] | 754 | 700 | 769
10 | 9 | 7 | 16 | CC(O)(C#Cc1ccc2[nH]cc(-c3cn[nH]c3)c2c1)c1nccs1 (stereo not drawn) [Compound 13] | 704 | 5520 | 9910
11 | 30 | 28 | 300 | OC1(C#Cc2ccc3[nH]cc(-c4cn[nH]c4)c3c2)CCCC1 [Compound 14] | 2200 | 4050 | 5440
